# Data published in ChEMBL document CHEMBL1201862, “PubChem BioAssay data set” (2004).
#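 1) Cells in 96-well plates. 2) Compound, 48 h, 5 concentrations. 3) Linear interpolation between surrounding doses. 4) Unreached endpoint = highest concentration. At the GI50, growth is halved.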 Active and inactive are the calls of the source. No stated cut-off is given here; in the data, active = GI50 up to about 1.1 µM and inactive = higher.
# Key:
# Experiment in all cases: NCI tumour cell line growth inhibition, 48 h
# [1] = tested on: SK-MEL-2
# [2] = tested on: LOX IMVI
# [3] = tested on: DMS-273
# [4] = tested on: SR
# [5] = tested on: NCI-H23
# [6] = tested on: SNB-19
# [7] = tested on: SNB-75
# [8] = tested on: OVCAR-5
# [9] = tested on: HT-29
# [10] = tested on: NCI-H226
# [11] = tested on: COLO 205
# [12] = tested on: U-251
# [13] = tested on: SK-MEL-5
# [14] = tested on: KM-20L2
# [15] = tested on: DMS-114
# [16] = tested on: Malme-3M
# [17] = tested on: ACHN
# [18] = tested on: NCI-H460
# [19] = tested on: SN12C
# [20] = tested on: EKVX
# [21] = tested on: CAKI-1
# [22] = tested on: HL-60
# [23] = tested on: OVCAR-8
# [24] = tested on: KM12
# [25] = tested on: HOP-92
# [26] = tested on: M19-MEL
# [27] = tested on: SNB-78
# [28] = tested on: A549
# [29] = tested on: CCRF-CEM
# [30] = tested on: 786-0
# [31] = tested on: SF-539
# [32] = tested on: MOLT-4
# [33] = tested on: HOP-62
# [34] = tested on: OVCAR-4
# [35] = tested on: UO-31
# [36] = tested on: HCC 2998
# [37] = tested on: HOP-18
# [38] = tested on: LXFL 529
# [39] = tested on: SF-295
# [40] = tested on: SW-620
# [41] = tested on: A498
# [42] = tested on: SK-OV-3
# [43] = tested on: DLD-1
# [44] = tested on: SK-MEL-28
# [45] = tested on: RXF 393
# [46] = tested on: UACC-257
# [47] = tested on: NCI-H522
# [48] = tested on: K562
# [49] = tested on: UACC-62
# [50] = tested on: M14
# [51] = tested on: OVCAR-3
# [52] = tested on: HCT-15
# [53] = tested on: XF498
# [54] = tested on: IGROV-1
# [55] = tested on: SF-268
# [56] = tested on: RPMI-8226
# [57] = tested on: HCT-116
# [58] = tested on: TK-10
# [59] = tested on: RXF 631
structure (smiles),measurement,setting,value
Cn1c2c(cc(-c3ccccc3)c1=O)COc1ccccc1-2,GI50,[1],14 µM (inactive)
same,GI50,[2],15.2 µM (inactive)
same,GI50,[3],19.5 µM (inactive)
same,GI50,[4],39.1 µM (inactive)
same,GI50,[5],26.9 µM (inactive)
same,GI50,[6],40.9 µM (inactive)
same,GI50,[7],23.4 µM (inactive)
same,GI50,[8],14.5 µM (inactive)
same,GI50,[9],19.9 µM (inactive)
same,GI50,[10],32.5 µM (inactive)
same,GI50,[11],29 µM (inactive)
same,GI50,[12],41.6 µM (inactive)
same,GI50,[13],17.5 µM (inactive)
same,GI50,[14],25.1 µM (inactive)
same,GI50,[15],15.4 µM (inactive)
same,GI50,[16],20.3 µM (inactive)
same,GI50,[17],24 µM (inactive)
same,GI50,[18],20.3 µM (inactive)
same,GI50,[19],35 µM (inactive)
same,GI50,[20],9.04 µM (inactive)
same,GI50,[21],37.5 µM (inactive)
same,GI50,[22],29.8 µM (inactive)
same,GI50,[23],34 µM (inactive)
same,GI50,[24],13 µM (inactive)
same,GI50,[25],28.8 µM (inactive)
same,GI50,[26],25.6 µM (inactive)
same,GI50,[27],33.7 µM (inactive)
same,GI50,[28],33.3 µM (inactive)
same,GI50,[29],30.5 µM (inactive)
same,GI50,[30],39.3 µM (inactive)
same,GI50,[31],49.1 µM (inactive)
same,GI50,[32],23.1 µM (inactive)
same,GI50,[33],42.3 µM (inactive)
same,GI50,[34],37.8 µM (inactive)
same,GI50,[35],27.5 µM (inactive)
same,GI50,[36],24.8 µM (inactive)
same,GI50,[37],> 100 µM (inactive)
same,GI50,[38],31.4 µM (inactive)
same,GI50,[39],25.8 µM (inactive)
same,GI50,[40],45.9 µM (inactive)
same,GI50,[41],40.6 µM (inactive)
same,GI50,[42],37.8 µM (inactive)
same,GI50,[43],36.6 µM (inactive)
same,GI50,[44],24.1 µM (inactive)
same,GI50,[45],36.1 µM (inactive)
same,GI50,[46],36.9 µM (inactive)
same,GI50,[47],17.9 µM (inactive)
same,GI50,[48],23.9 µM (inactive)
same,GI50,[49],14.7 µM (inactive)
same,GI50,[50],31.6 µM (inactive)
same,GI50,[51],26.4 µM (inactive)
same,GI50,[52],32.1 µM
same,GI50,[53],8.04 µM (inactive)
same,GI50,[54],35.5 µM (inactive)
same,GI50,[55],28.6 µM (inactive)
same,GI50,[56],20.2 µM (inactive)
same,GI50,[57],16.9 µM (inactive)
ClC(Cl)[Si]12OCCN(CCO1)CCO2,GI50,[1],> 100 µM (inactive)
same,GI50,[3],> 100 µM (inactive)
same,GI50,[4],> 100 µM (inactive)
same,GI50,[5],> 100 µM (inactive)
same,GI50,[6],> 100 µM (inactive)
same,GI50,[7],> 100 µM (inactive)
same,GI50,[8],> 100 µM (inactive)
same,GI50,[9],> 100 µM (inactive)
same,GI50,[11],> 100 µM (inactive)
same,GI50,[12],> 100 µM (inactive)
same,GI50,[13],> 100 µM (inactive)
same,GI50,[15],> 100 µM (inactive)
same,GI50,[16],> 100 µM (inactive)
same,GI50,[58],> 100 µM (inactive)
same,GI50,[17],> 100 µM (inactive)
same,GI50,[18],> 100 µM (inactive)
same,GI50,[19],> 100 µM (inactive)
same,GI50,[21],> 100 µM (inactive)
same,GI50,[22],> 100 µM (inactive)
same,GI50,[23],> 100 µM (inactive)
same,GI50,[24],> 100 µM (inactive)
same,GI50,[25],> 100 µM (inactive)
same,GI50,[59],> 100 µM (inactive)
same,GI50,[27],> 100 µM (inactive)
same,GI50,[28],> 100 µM (inactive)
same,GI50,[29],> 100 µM (inactive)
same,GI50,[30],> 100 µM (inactive)
same,GI50,[31],> 100 µM (inactive)
same,GI50,[32],> 100 µM (inactive)
same,GI50,[35],> 100 µM (inactive)
same,GI50,[36],> 100 µM (inactive)
same,GI50,[37],> 100 µM (inactive)
same,GI50,[38],> 100 µM (inactive)
same,GI50,[39],> 100 µM (inactive)
same,GI50,[40],> 100 µM (inactive)
same,GI50,[41],> 100 µM (inactive)
same,GI50,[42],> 100 µM (inactive)
same,GI50,[43],> 100 µM (inactive)
same,GI50,[44],> 100 µM (inactive)
same,GI50,[45],> 100 µM (inactive)
same,GI50,[46],> 100 µM (inactive)
same,GI50,[47],> 100 µM (inactive)
same,GI50,[48],> 100 µM (inactive)
same,GI50,[49],> 100 µM (inactive)
same,GI50,[51],> 100 µM (inactive)
same,GI50,[54],> 100 µM (inactive)
same,GI50,[55],> 100 µM (inactive)
same,GI50,[56],> 100 µM (inactive)
same,GI50,[57],> 100 µM (inactive)
COC(=O)C1=C(O)c2cc(OC)c(OC)c(OC)c2C(c2ccc3c(c2)OCO3)[C@@H]1C(=O)OC (stereo not given in full),GI50,[1],7.48 µM (inactive)
same,GI50,[2],4.43 µM (inactive)
same,GI50,[3],3.02 µM (inactive)
same,GI50,[4],3.66 µM (inactive)
same,GI50,[5],7.03 µM (inactive)
same,GI50,[7],4.07 µM (inactive)
same,GI50,[8],> 100 µM (inactive)
same,GI50,[9],2.84 µM (inactive)
same,GI50,[10],8.97 µM (inactive)
same,GI50,[11],2.24 µM (inactive)
same,GI50,[12],3.66 µM (inactive)
same,GI50,[14],2.36 µM (inactive)
same,GI50,[15],2.4 µM (inactive)
same,GI50,[16],3.44 µM (inactive)
same,GI50,[58],7.18 µM (inactive)
same,GI50,[17],4.74 µM (inactive)
same,GI50,[18],5.47 µM (inactive)
same,GI50,[19],3.68 µM (inactive)
same,GI50,[20],25.2 µM (inactive)
same,GI50,[21],0.935 µM (active)
same,GI50,[22],1.74 µM (inactive)
same,GI50,[23],5.37 µM (inactive)
same,GI50,[24],2.94 µM (inactive)
same,GI50,[25],> 100 µM (inactive)
same,GI50,[59],5.82 µM (inactive)
same,GI50,[27],15.1 µM (inactive)
same,GI50,[28],4.68 µM (inactive)
same,GI50,[29],4.42 µM (inactive)
same,GI50,[30],3.65 µM (inactive)
same,GI50,[31],2.18 µM (inactive)
same,GI50,[32],4.69 µM (inactive)
same,GI50,[33],5.53 µM (inactive)
same,GI50,[34],6.49 µM (inactive)
same,GI50,[35],6.08 µM (inactive)
same,GI50,[36],4.97 µM (inactive)
same,GI50,[37],23.1 µM (inactive)
same,GI50,[38],3.08 µM (inactive)
same,GI50,[39],2.01 µM (inactive)
same,GI50,[40],2.22 µM (inactive)
same,GI50,[41],3.82 µM (inactive)
same,GI50,[42],3.44 µM (inactive)
same,GI50,[43],4.69 µM (inactive)
same,GI50,[44],7.31 µM (inactive)
same,GI50,[45],2.29 µM (inactive)
same,GI50,[46],5.81 µM (inactive)
same,GI50,[48],3.9 µM (inactive)
same,GI50,[49],1.53 µM (inactive)
same,GI50,[50],3.03 µM (inactive)
same,GI50,[51],1.99 µM (inactive)
same,GI50,[52],7.1 µM
same,GI50,[54],5.56 µM (inactive)
same,GI50,[55],4.28 µM (inactive)
same,GI50,[56],6.62 µM (inactive)
same,GI50,[57],4.36 µM (inactive)
